Measured values taken from patent US11584744B2 (UNIVERSITY OF WASHINGTON, priority 2017, dated 2023).
Read-outs that look alike come from different tables or passages of the source. Marks after values point to notes of the source that are not given here.

Key:
[1] = tested on: T. brucei; assay: T. brucei growth inhibition; type: cell-based, Trypanosoma brucei; conditions: read-out: (D) T. brucei EC50
[2] = tested on: E. coli (ATCC 25922); assay: MIC susceptibility testing; type: cell-based; conditions: Escherichia coli, ATCC25922
In short: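 CLSI broth microdilution with two-fold compound dilutions, in triplicate; cells added in medium at 1×10^6 CFUs/mL, DMSO ≤0.5%. Media: MHB for S. aureus, CA-MHB for E. coli and E. faecium, CA-MHB plus 3% laked horse blood for S. pyogenes (5% CO2).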

[3] = tested on: P. aeruginosa (ATCC 27853); assay: MIC susceptibility testing; type: cell-based; conditions: Pseudomonas aeruginosa, ATCC27853
[4] = tested on: G. lamblia (ATCC GL50803); assay: G. lamblia growth inhibition; type: cell-based; conditions: Giardia duodenalis, read-out: (K) G. lamblia (ATCC GL50803) EC50
[5] = tested on: Cryptosporidium; assay: C. parvum infection model, NOD SCID Gamma mice, oocysts in stool by PCR; type: in vivo, Cryptosporidium parvum; conditions: treated 5 days
Method: (§1) Several compounds of the disclosure were also evaluated in vivo in C. parvum infection model and in acute T. cruzi infection model. Immunosuppressed mice (NOD SCID Gamma) with Cryptosporidium infection were treated for 5 days with test compounds. Cryptosporidium oocysts were quantified in stool by PCR. […] In FIG. 4, gamma-IFN knockout mice were used and, similarly, treated for 5 days with the test compound 2093. […] With respect to the T. cruzi, an efficacy model was employed in which the infection was monitored using bioluminescent T. cruz. With vehicle treatment, all mice died by day 14 post-infection.

[6] = tested on: T. cruzi; assay: Acute T. cruzi infection model (bioluminescent T. cruzi); type: in vivo, Trypanosoma cruzi; conditions: 50 mg/kg orally twice a day for five days
Method: FIG. 5 illustrates efficacy of a MetRS inhibitor in acute T. cruzi infection model. (A) Study protocol. Compounds were dosed orally with 50 mg/kg twice a day for five days, and the images were taken of day 6, 13, and 24. (B) Images and (C) graphs of the […] results.
as §1

[7] = tested on: Cryptosporidium parvum; assay: C. parvum parasite burden model, gamma-IFN knockout mice, bioluminescence readout; type: in vivo
Method: FIG. 4 illustrates efficacy of MetRS inhibitors in a parasite burden model of Cryptosporidium parvum infection. About 1,000-fold reduction of parasite burden was observed after treatment by 2093.
as §1

[8] = Data from Drugbank; cited from earlier work
[9] = Protein binding to human plasma; type: in vitro ADME

## CCn1c(Cc2ccc(OC)cc2Cl)cn(Cc2nc3nc(F)ccc3[nH]2)c1=O [Compound 2114, 4-[(2-chloro-4-methoxyphenyl)methyl]-3-ethyl-1-({5-fluoro-1H-imidazo[4,5-b]pyridin-2-yl}methyl)-2,3-dihydro-1H-imidazol-2-one]
[1]; Trypanosoma brucei
  EC50: 1.4 nM

## CCn1c(Cc2ccc(Cl)cc2Cl)cn(Cc2nc3nc(F)ccc3[nH]2)c1=O [Compound 2062, 4-[(2,4-dichlorophenyl)methyl]-3-ethyl-1-({5-fluoro-1H-imidazo[4,5-b]pyridin-2-yl}methyl)-2,3-dihydro-1H-imidazol-2-one]
[1]
  EC50: 3.48 nM

## Fc1ccc2nc(NCCCNCc3cc(Cl)cc(Cl)c3)[nH]c2n1 [Compound 1614, [(3,5-dichlorophenyl)methyl][3-({5-fluoro-3H-imidazo[4,5-b]pyridin-2-yl}amino)propyl]amine]
[2]
  MIC: > 10 µg/mL
[3]
  MIC: > 10 µg/mL

## CCn1c(Cc2ccc(OC)cc2Cl)cn(Cc2nc3nc(Cl)ccc3[nH]2)c1=O [Compound 2093, 1-({5-chloro-1H-imidazo[4,5-b]pyridin-2-yl}methyl)-4-[(2-chloro-4-methoxyphenyl)methyl]-3-ethyl-2,3-dihydro-1H-imidazol-2-one]
[4]
  EC50: 10 nM
[5]
  suppression of infection: over 99%
[6]
  tissue parasites: dramatic suppression of tissue parasites
[6]; vehicle mice all died by day 14
  survival: 100%
[7]; FIG. 4
  reduction of parasite burden: About 1,000 fold
[7]; gamma-IFN knockout mice, treated 5 days, bioluminescence
  drop in fecal parasites: > 4 log

## CC(=O)NC[C@H]1CN(c2ccc(N3CCOCC3)c(F)c2)C(=O)O1 [LNZ, linezolid]
[8]
  % binding to human plasma: 31* %

## Fc1ccc2nc(NCCCN[C@@H]3CCNc4c(Cl)cc(Cl)cc43)[nH]c2n1 [Compound 1717, (4R)-6,8-dichloro—N-[3-({5-fluoro-3H-imidazo[4,5-b]pyridin-2-yl}amino)propyl]-1,2,3,4-tetrahydroquinolin-4-amine, reference compound]
[9]
  % binding to human plasma: 95.4%
[2]
  MIC: > 10 µg/mL
[3]
  MIC: > 10 µg/mL
